The text below walks through data of patent publication US8722849B2, “Polypeptides” (Novo Nordisk A/S, priority 2011, dated 2014).

Series [1] can be described thus: Assay (III) ThT fibrillation assay for physical stability. In kind it is physicochemical. The procedure, abridged: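 Freshly prepared formulations, pH-adjusted, with 1 μM ThT; four or eight replicates incubated at 37 °C under 960 rpm orbital shaking. Fluorescence (ex 444/em 485 nm) read every 20 min; […]. Peptide concentration measured by RP-HPLC before and after the run.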

A short description of series [2]: Assay (IV) determination of solubility. Format: physicochemical. The procedure, abridged:
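Polypeptide in water (~500 nmol/ml) mixed 1:1 with 100 mM glycylglycine (pH 3.0–5.0) or bistrispropane (pH 6.0–8.0) buffers. Held 18 hours at room temperature, then centrifuged. Polypeptide remaining in solution quantified by HPLC.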

Series [3] deals with T1, human calcitonin receptor (Homo sapiens, UniProt P30988).
T1 construct: expressed in transfected cells; host or cells: BHK570
T1 sequence (P30988 25-474): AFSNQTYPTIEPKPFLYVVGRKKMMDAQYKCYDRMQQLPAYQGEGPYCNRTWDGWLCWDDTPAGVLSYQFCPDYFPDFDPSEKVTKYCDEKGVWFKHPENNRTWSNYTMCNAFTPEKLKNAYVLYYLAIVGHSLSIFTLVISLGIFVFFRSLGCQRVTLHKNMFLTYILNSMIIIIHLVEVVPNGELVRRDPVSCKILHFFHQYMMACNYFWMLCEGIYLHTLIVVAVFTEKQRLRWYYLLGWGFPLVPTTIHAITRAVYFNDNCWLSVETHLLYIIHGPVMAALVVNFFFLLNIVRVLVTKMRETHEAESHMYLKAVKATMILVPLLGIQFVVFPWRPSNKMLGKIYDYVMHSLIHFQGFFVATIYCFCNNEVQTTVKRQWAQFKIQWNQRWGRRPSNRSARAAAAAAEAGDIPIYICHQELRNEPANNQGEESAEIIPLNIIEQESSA
The experiment in a line: Assay (II)a functional CRE-luciferase assay, human calcitonin receptor. Format: cell-based. As to conditions: Table 7; human calcitonin (CTa) receptor.

Series [4] addresses T2, human amylin receptor (amylin 3(a) receptor: human calcitonin receptor + RAMP-3) (Homo sapiens, UniProt O60896+P30988).
T2 construct: expressed in transfected cells; host or cells: BHK570
T2 sequence (P30988 25-474): T1 sequence (P30988 25-474)
T2 sequence (O60896 24-148 partner): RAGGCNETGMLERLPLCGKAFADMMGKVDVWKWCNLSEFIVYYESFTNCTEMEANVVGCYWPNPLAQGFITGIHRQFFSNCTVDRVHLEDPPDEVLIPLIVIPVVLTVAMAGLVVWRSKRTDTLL
The experiment in a line: Assay (II)a functional CRE-luciferase assay, human amylin receptor. As to conditions: Table 2; BHK amylin 3(a)-receptor/CRE-luc cells. Format: cell-based.

The mark [5] stands for this setting: bistrispropane buffer, pH 6, pH 6.0, read-out: Solubility pH 6.0.
The mark [6] stands for this setting: bistrispropane buffer, pH 6.5, pH 6.5, read-out: Solubility pH 6.5.
Setting [7] is: bistrispropane buffer, pH 7, pH 7.0, 18 hours at room temperature, Table 3, read-out: Solubility pH 7.0.
[8] abbreviates: bistrispropane buffer, pH 7, pH 7.0, read-out: Solubility pH 7.0.
Where [9] appears, read: bistrispropane buffer, pH 7.5, pH 7.5, read-out: Solubility pH 7.5.
[10] abbreviates: bistrispropane buffer, pH 8, pH 8.0, read-out: Solubility pH 8.0.
Where [11] appears, read: glycylglycine buffer, pH 3, pH 3.0, read-out: Solubility pH 3.0.
The mark [12] stands for this setting: glycylglycine buffer, pH 4, pH 4.0, 18 hours at room temperature, Table 2, read-out: Solubility pH 4.0.
Setting [13] is: glycylglycine buffer, pH 4, pH 4.0, read-out: Solubility pH 4.0.
[14] abbreviates: glycylglycine buffer, pH 5, pH 5.0, read-out: Solubility pH 5.0.

One may read the solubility as how much of the substance goes into solution per volume. One may read the EC50 as the concentration at which the effect is half-maximal.

≈ marks a conversion by molar mass, not a printed value. Like-named read-outs stand apart in the source and are kept apart here. Starred links: 1 amine or outer side, 2 acyl side, 3 side chain; linkers in the order of their positions; H or OH if unused. Positions of bridges follow the written chain, without caps; N, C: chain ends. Residues, ends and D or L forms follow the SMILES beside them. *: point of attachment. C20 diacid = O=C(O)CCCCCCCCCCCCCCCCCCC(=O)*; γGlu = O=C(O)[C@H](CCC(=O)[*:2])N[*:1] Some results are limits rather than exact numbers.

`CC[C@H](C)[C@H](NC(=O)[C@@H]1CCCN1C(=O)CNC(=O)[C@H](Cc1ccccc1)NC(=O)[C@H](CC(N)=O)NC(=O)[C@H](CC(N)=O)NC(=O)[C@H](CO)NC(=O)[C@H](CO)NC(=O)[C@H](Cc1c[nH]cn1)NC(=O)[C@H](Cc1c[nH]cn1)NC(=O)[C@H](CC(C)C)NC(=O)[C@H](Cc1ccccc1)NC(=O)[C@H](CCC(=O)O)NC(=O)[C@H](C)NC(=O)[C@H](CC(C)C)NC(=O)[C@H](CCCNC(=N)N)NC(=O)[C@H](CCC(N)=O)NC(=O)[C@@H](NC(=O)[C@H](C)NC(=O)[C@@H]1CSSC[C@H](NC(=O)[C@H](CCC(=O)O)NC(=O)[C@H](CCCNC(=N)N)NC(=O)[C@H](CCC(=O)O)NC(=O)CC[C@H](NC(=O)CCCCCCCCCCCCCCCCCCC(=O)O)C(=O)O)C(=O)N[C@@H](CC(N)=O)C(=O)N[C@@H]([C@@H](C)O)C(=O)N[C@@H](C)C(=O)N[C@@H]([C@@H](C)O)C(=O)N1)[C@@H](C)O)C(=O)N[C@@H](CC(C)C)C(=O)N1CCC[C@H]1C(=O)N1CCC[C@H]1C(=O)N[C@H](C(=O)N[C@@H](CC(N)=O)C(=O)N[C@H](C(=O)NCC(=O)N[C@@H](CO)C(=O)N[C@@H](CC(N)=O)C(=O)N[C@H](C(=O)N1CCC[C@H]1C(N)=O)[C@@H](C)O)C(C)C)[C@@H](C)O` [Example 123, N-alpha-[(S)-4-Carboxy-4-(19-carboxynonadecanoylamino)butyryl]-Glu-Arg-[Glu1,Glu14,His17,Pro37]-pramlintide] ({C20 diacid-γGlu}-ERECNTATCATQRLAEFLHHSSNNFGPILPPTNVGSNTP-NH2; disulfide 4-9 (inferred)): the “ThT pH 4.0 lag time (h)” value in series [1] (ThT fibrillation assay) worked out at 8.7 h. For the same molecule, the solubility at 18 h in series [2] (setting [5]), in series [2] (setting [6]), in series [2] (setting [7]), in series [2] (setting [8]), in series [2] (setting [9]) and in series [2] (setting [10]) was greater than 200 µM each time. For the same molecule, the solubility at 18 h in series [2] (setting [11]), in series [2] (setting [12]), in series [2] (setting [13]) and in series [2] (setting [14]) was greater than 200 µM throughout. Also, the EC50 in series [3] is 0.378 nM; in series [4] it was 0.136 nM.
Turning to `CC[C@H](C)[C@H](NC(=O)[C@@H]1CCCN1C(=O)CNC(=O)[C@H](Cc1ccccc1)NC(=O)[C@H](CC(N)=O)NC(=O)[C@H](CC(N)=O)NC(=O)[C@H](CO)NC(=O)[C@H](CO)NC(=O)[C@H](Cc1c[nH]cn1)NC(=O)[C@H](Cc1c[nH]cn1)NC(=O)[C@H](CC(C)C)NC(=O)[C@H](Cc1ccccc1)NC(=O)[C@H](CCC(=O)O)NC(=O)[C@H](C)NC(=O)[C@H](CC(C)C)NC(=O)[C@H](CCCNC(=N)N)NC(=O)[C@H](CCC(N)=O)NC(=O)[C@@H](NC(=O)[C@H](C)NC(=O)[C@@H]1CSSC[C@H](NC(=O)CC[C@H](NC(=O)CCCCCCCCCCCCCCCCCCC(=O)O)C(=O)O)C(=O)N[C@@H](CC(N)=O)C(=O)N[C@@H]([C@@H](C)O)C(=O)N[C@@H](C)C(=O)N[C@@H]([C@@H](C)O)C(=O)N1)[C@@H](C)O)C(=O)N[C@@H](CC(C)C)C(=O)N1CCC[C@H]1C(=O)N1CCC[C@H]1C(=O)N[C@H](C(=O)N[C@@H](CC(N)=O)C(=O)N[C@H](C(=O)NCC(=O)N[C@@H](CO)C(=O)N[C@@H](Cc1c[nH]cn1)C(=O)N[C@H](C(=O)N[C@@H](Cc1ccc(O)cc1)C(N)=O)[C@@H](C)O)C(C)C)[C@@H](C)O` [Example 75, N-alpha-[(S)-4-Carboxy-4-(19-carboxynonadecanoylamino)butyryl]-[des1,Glu14,His17,His35]-pramlintide] ({C20 diacid-γGlu}-CNTATCATQRLAEFLHHSSNNFGPILPPTNVGSHTY-NH2; disulfide 1-6 (inferred)), the “ThT pH 4.0 lag time” value in series [1] (Table 8) and in series [1] (ThT fibrillation assay) was 28 h each time. Moreover, the “ThT pH 4.0 lag time (h)” value in series [1] (ThT fibrillation assay) is on record as 28 h. For the same molecule, the solubility at 18 h in series [2] (setting [5]) is greater than 200 µM; in series [2] (setting [6]) it was 193 µM (≈ 840 µg/mL); in series [2] (setting [7]), greater than 200 µM; in series [2] (bistrispropane buffer, pH 7, pH 7.0, Table 8, read-out: Solubility pH 7.0), greater than 200 µM; in series [2] (setting [8]) it was greater than 200 µM; in series [2] (setting [9]) it was greater than 200 µM. Moreover, the solubility at 18 h in series [2] (setting [10]), in series [2] (setting [11]), in series [2] (setting [12]), in series [2] (setting [13]) and in series [2] (setting [14]) was greater than 200 µM each time. Moreover, the concentration for a half-maximal effect (EC50) in series [3] was found to be 0.286 nM; in series [4], 0.365 nM.
As for `CC[C@H](C)[C@H](NC(=O)[C@@H]1CCCN1C(=O)CNC(=O)[C@H](Cc1ccccc1)NC(=O)[C@H](CC(N)=O)NC(=O)[C@H](CC(N)=O)NC(=O)[C@H](CO)NC(=O)[C@H](CO)NC(=O)[C@H](Cc1c[nH]cn1)NC(=O)[C@H](Cc1c[nH]cn1)NC(=O)[C@H](CC(C)C)NC(=O)[C@H](Cc1ccccc1)NC(=O)[C@H](CCC(=O)O)NC(=O)[C@H](C)NC(=O)[C@H](CC(C)C)NC(=O)[C@H](CCCNC(=N)N)NC(=O)[C@H](CCC(N)=O)NC(=O)[C@@H](NC(=O)[C@H](C)NC(=O)[C@@H]1CSSC[C@H](NC(=O)[C@H](CCCCN)NC(=O)CC[C@H](NC(=O)CCCCCCCCCCCCCCCCCCC(=O)O)C(=O)O)C(=O)N[C@@H](CC(N)=O)C(=O)N[C@@H]([C@@H](C)O)C(=O)N[C@@H](C)C(=O)N[C@@H]([C@@H](C)O)C(=O)N1)[C@@H](C)O)C(=O)N[C@@H](CC(C)C)C(=O)N1CCC[C@H]1C(=O)N1CCC[C@H]1C(=O)N[C@H](C(=O)N[C@@H](CC(N)=O)C(=O)N[C@@H](Cc1c[nH]cn1)C(=O)NCC(=O)N[C@@H](CO)C(=O)N[C@@H](CC(N)=O)C(=O)N[C@H](C(=O)N[C@@H](Cc1ccc(O)cc1)C(N)=O)[C@@H](C)O)[C@@H](C)O` [Example 116, N-alpha-[(S)-4-Carboxy-4-(19-carboxynonadecanoylamino)butyryl]-[Glu14,His17,His32]-pramlintide] ({C20 diacid-γGlu}-KCNTATCATQRLAEFLHHSSNNFGPILPPTNHGSNTY-NH2; disulfide 2-7 (inferred); C-terminus assumed), the “ThT pH 4.0 lag time” value in series [1] (ThT fibrillation assay) is recorded as greater than 45 h. The “ThT pH 4.0 lag time (h)” value in series [1] (ThT fibrillation assay) was greater than 45 h. In addition, the solubility at 18 h in series [2] (setting [5]) was greater than 200 µM; in series [2] (setting [6]) it was 120 µM (≈ 539 µg/mL); in series [2] (setting [8]), 44 µM (≈ 198 µg/mL); in series [2] (setting [9]) it was 79 µM (≈ 355 µg/mL); in series [2] (setting [10]), 173 µM (≈ 777 µg/mL); in series [2] (setting [11]), greater than 200 µM. In addition, the solubility at 18 h in series [2] (setting [12]), in series [2] (setting [13]) and in series [2] (setting [14]) was greater than 200 µM throughout. The EC50 is 0.124 nM in series [3] and 0.487 nM in series [4].
